Source: BigSolDB 2.1

**Q.** For `O=C(O)c1ccc(CO)cc1`, which solubility (mole fraction) (in ethanol, 283.15 K) is on record?
**A.** 0.0289

**Q.** What about the solubility (mole fraction) (in ethanol, 288.15 K) of the same compound?
**A.** 0.0325

**Q.** What about the solubility (mole fraction) (in ethanol, 293.15 K) of the same compound?
**A.** 0.0367

**Q.** What about the solubility (mole fraction) (in ethanol, 298.15 K) of the same compound?
**A.** 0.0414

**Q.** What about the solubility (mole fraction) (in ethanol, 303.15 K) of the same compound?
**A.** 0.0468

**Q.** What about the solubility (mole fraction) (in ethanol, 308.15 K) of the same compound?
**A.** 0.0529

**Q.** And the solubility (mole fraction) (in ethanol, 313.15 K)?
**A.** 0.0599

**Q.** And the solubility (mole fraction) (in ethanol, 318.15 K)?
**A.** 0.0678

**Q.** What about the solubility (mole fraction) (in ethanol, 323.15 K) of the same compound?
**A.** 0.0768

**Q.** What about the solubility (mole fraction) (in ethyl acetate, 283.15 K) of the same compound?
**A.** 0.00475

**Q.** And the solubility (mole fraction) (in ethyl acetate, 288.15 K)?
**A.** 0.00528

**Q.** And the solubility (mole fraction) (in ethyl acetate, 293.15 K)?
**A.** 0.00653

**Q.** What about the solubility (mole fraction) (in ethyl acetate, 298.15 K) of the same compound?
**A.** 0.00797

**Q.** What about the solubility (mole fraction) (in ethyl acetate, 303.15 K) of the same compound?
**A.** 0.00919

**Q.** What about the solubility (mole fraction) (in ethyl acetate, 308.15 K) of the same compound?
**A.** 0.0109

**Q.** And the solubility (mole fraction) (in ethyl acetate, 313.15 K)?
**A.** 0.0133

**Q.** What about the solubility (mole fraction) (in ethyl acetate, 318.15 K) of the same compound?
**A.** 0.0161

**Q.** What about the solubility (mole fraction) (in ethyl acetate, 323.15 K) of the same compound?
**A.** 0.0199

**Q.** And the solubility (mole fraction) (in ethyl formate, 283.15 K)?
**A.** 0.00168

**Q.** And the solubility (mole fraction) (in ethyl formate, 288.15 K)?
**A.** 0.00259

**Q.** And the solubility (mole fraction) (in ethyl formate, 293.15 K)?
**A.** 0.00319

**Q.** And the solubility (mole fraction) (in ethyl formate, 298.15 K)?
**A.** 0.00396

**Q.** And the solubility (mole fraction) (in ethyl formate, 303.15 K)?
**A.** 0.00431

**Q.** What about the solubility (mole fraction) (in ethyl formate, 308.15 K) of the same compound?
**A.** 0.00535

**Q.** And the solubility (mole fraction) (in ethyl formate, 313.15 K)?
**A.** 0.00704

**Q.** What about the solubility (mole fraction) (in ethyl formate, 318.15 K) of the same compound?
**A.** 0.00773

**Q.** What about the solubility (mole fraction) (in ethyl formate, 323.15 K) of the same compound?
**A.** 0.00889

**Q.** And the solubility (mole fraction) (in isopropanol, 283.15 K)?
**A.** 0.0268

**Q.** And the solubility (mole fraction) (in isopropanol, 288.15 K)?
**A.** 0.0294

**Q.** And the solubility (mole fraction) (in isopropanol, 293.15 K)?
**A.** 0.0337

**Q.** And the solubility (mole fraction) (in isopropanol, 298.15 K)?
**A.** 0.0391

**Q.** And the solubility (mole fraction) (in isopropanol, 303.15 K)?
**A.** 0.044

**Q.** And the solubility (mole fraction) (in isopropanol, 308.15 K)?
**A.** 0.0523

**Q.** And the solubility (mole fraction) (in isopropanol, 313.15 K)?
**A.** 0.0602

**Q.** What about the solubility (mole fraction) (in isopropanol, 318.15 K) of the same compound?
**A.** 0.0697

**Q.** And the solubility (mole fraction) (in isopropanol, 323.15 K)?
**A.** 0.0826

**Q.** What about the solubility (mole fraction) (in isopropyl acetate, 283.15 K) of the same compound?
**A.** 0.00324

**Q.** And the solubility (mole fraction) (in isopropyl acetate, 288.15 K)?
**A.** 0.00444

**Q.** And the solubility (mole fraction) (in isopropyl acetate, 293.15 K)?
**A.** 0.00481

**Q.** And the solubility (mole fraction) (in isopropyl acetate, 298.15 K)?
**A.** 0.00599

**Q.** And the solubility (mole fraction) (in isopropyl acetate, 303.15 K)?
**A.** 0.00827

**Q.** What about the solubility (mole fraction) (in isopropyl acetate, 308.15 K) of the same compound?
**A.** 0.00969

**Q.** And the solubility (mole fraction) (in isopropyl acetate, 313.15 K)?
**A.** 0.0113

**Q.** And the solubility (mole fraction) (in isopropyl acetate, 318.15 K)?
**A.** 0.0127

**Q.** What about the solubility (mole fraction) (in isopropyl acetate, 323.15 K) of the same compound?
**A.** 0.0155

**Q.** What about the solubility (mole fraction) (in methanol, 283.15 K) of the same compound?
**A.** 0.0282

**Q.** And the solubility (mole fraction) (in methanol, 288.15 K)?
**A.** 0.0323

**Q.** What about the solubility (mole fraction) (in methanol, 293.15 K) of the same compound?
**A.** 0.0361

**Q.** What about the solubility (mole fraction) (in methanol, 298.15 K) of the same compound?
**A.** 0.0414

**Q.** And the solubility (mole fraction) (in methanol, 303.15 K)?
**A.** 0.0473

**Q.** And the solubility (mole fraction) (in methanol, 308.15 K)?
**A.** 0.0535

**Q.** What about the solubility (mole fraction) (in methanol, 313.15 K) of the same compound?
**A.** 0.0608

**Q.** What about the solubility (mole fraction) (in methanol, 318.15 K) of the same compound?
**A.** 0.0682

**Q.** And the solubility (mole fraction) (in methanol, 323.15 K)?
**A.** 0.078

**Q.** And the solubility (mole fraction) (in n-butyl acetate, 283.15 K)?
**A.** 0.00341

**Q.** What about the solubility (mole fraction) (in n-butyl acetate, 288.15 K) of the same compound?
**A.** 0.00463

**Q.** And the solubility (mole fraction) (in n-butyl acetate, 293.15 K)?
**A.** 0.00508

**Q.** And the solubility (mole fraction) (in n-butyl acetate, 298.15 K)?
**A.** 0.00622

**Q.** And the solubility (mole fraction) (in n-butyl acetate, 303.15 K)?
**A.** 0.00854

**Q.** What about the solubility (mole fraction) (in n-butyl acetate, 308.15 K) of the same compound?
**A.** 0.01

**Q.** And the solubility (mole fraction) (in n-butyl acetate, 313.15 K)?
**A.** 0.0117

**Q.** And the solubility (mole fraction) (in n-butyl acetate, 318.15 K)?
**A.** 0.0132

**Q.** What about the solubility (mole fraction) (in n-butyl acetate, 323.15 K) of the same compound?
**A.** 0.0158

**Q.** And the solubility (mole fraction) (in n-propanol, 283.15 K)?
**A.** 0.0236

**Q.** What about the solubility (mole fraction) (in n-propanol, 288.15 K) of the same compound?
**A.** 0.026

**Q.** And the solubility (mole fraction) (in n-propanol, 293.15 K)?
**A.** 0.0298

**Q.** What about the solubility (mole fraction) (in n-propanol, 298.15 K) of the same compound?
**A.** 0.0345

**Q.** And the solubility (mole fraction) (in n-propanol, 303.15 K)?
**A.** 0.0367

**Q.** And the solubility (mole fraction) (in n-propanol, 308.15 K)?
**A.** 0.0446

**Q.** What about the solubility (mole fraction) (in n-propanol, 313.15 K) of the same compound?
**A.** 0.0516

**Q.** And the solubility (mole fraction) (in n-propanol, 318.15 K)?
**A.** 0.0591

**Q.** What about the solubility (mole fraction) (in n-propanol, 323.15 K) of the same compound?
**A.** 0.0705

**Q.** And the solubility (mole fraction) (in water, 283.15 K)?
**A.** 0.000244

**Q.** And the solubility (mole fraction) (in water, 288.15 K)?
**A.** 0.000254

**Q.** And the solubility (mole fraction) (in water, 293.15 K)?
**A.** 0.0003

**Q.** What about the solubility (mole fraction) (in water, 298.15 K) of the same compound?
**A.** 0.00039

**Q.** And the solubility (mole fraction) (in water, 303.15 K)?
**A.** 0.000532

**Q.** What about the solubility (mole fraction) (in water, 308.15 K) of the same compound?
**A.** 0.000641

**Q.** And the solubility (mole fraction) (in water, 313.15 K)?
**A.** 0.000816

**Q.** And the solubility (mole fraction) (in water, 318.15 K)?
**A.** 0.000993

**Q.** And the solubility (mole fraction) (in water, 323.15 K)?
**A.** 0.00128
